# Results: patent US8901301B2, “Pyrrolo[2,3-]pyridine kinase inhibitors” (Plexxikon Inc., priority 2009, dated 2014)
# What was measured:
# [1] = tested on: SK-MEL-2 cells; assay: Cell growth inhibition (Cell Titer Glo), SK-MEL-2; type: cell-based; settings: Homo sapiens, SK-MEL-2, 72 h; wild-type B-RAF cell line, 3 days
# Protocol: (§1) Compounds are assessed in a variety of cell based assays, employing cells with or without B-Raf V600E mutation, for example cell lines with B-Raf V600E mutation (A375 and COLO205), as well as tumorigenic cell lines with wild-type B-RAF (SW620 and SK-MEL-2). Reagent and assay conditions are as follows:
# (§2) SK-MEL-2 cells growth medium: • Minimum Eagle essential medium, 2 mM L-glutamine, 1.5 g/L sodium bicarbonate, 0.1 mM non-essential amino acids, 1.0 mM sodium pyruvate, 10% fetal bovine serum. • On day 1, cells are seeded in growth media in 200 μL per well in a 96-well polystyrene tissue culture plate at 2,000 cells per well (A375, COLO205, SK-MEL-2) or 5,000 cells per well for SW620, and incubated at 37° C. and 5% CO2 overnight. • On day 2, compound at 4 mM in dimethyl sulfoxide is serially diluted 1:4 (10 μL with 30 μL dimethyl sulfoxide) seven times for a total of 8 concentration points. For each dilution point a 1 μL aliquot is added to a well containing cells (highest dilution point at 20 μM), with 1 μL of dimethyl sulfoxide as a negative control (each sample at 0.5% dimethyl sulfoxide). The cells are incubated for 3 days at 37° C. in 5% CO2. • On day 5, Cell Titer Glo (Promega) is thawed and added 100 μL to each well and the plate shaken for 1-2 minutes. The plates are incubated for 10 minutes at room temperature, then […] signal is read (e.g. on Safire reader). The measured fluoresence correlates directly with cell number, such that the reading as a function of compound concentration is used to determine the IC50 value.
# [2] = biological target: T1, CYP2D6 (Homo sapiens, UniProt P10635); assay: CYP inhibition (fluorescent substrate), CYP2D6; type: in vitro ADME; settings: substrate AMMC; read-out: Cyp IC50 (μM) 2D6
# T1 construct: purchased BD Biosciences
# T1 sequence (P10635 whole entry): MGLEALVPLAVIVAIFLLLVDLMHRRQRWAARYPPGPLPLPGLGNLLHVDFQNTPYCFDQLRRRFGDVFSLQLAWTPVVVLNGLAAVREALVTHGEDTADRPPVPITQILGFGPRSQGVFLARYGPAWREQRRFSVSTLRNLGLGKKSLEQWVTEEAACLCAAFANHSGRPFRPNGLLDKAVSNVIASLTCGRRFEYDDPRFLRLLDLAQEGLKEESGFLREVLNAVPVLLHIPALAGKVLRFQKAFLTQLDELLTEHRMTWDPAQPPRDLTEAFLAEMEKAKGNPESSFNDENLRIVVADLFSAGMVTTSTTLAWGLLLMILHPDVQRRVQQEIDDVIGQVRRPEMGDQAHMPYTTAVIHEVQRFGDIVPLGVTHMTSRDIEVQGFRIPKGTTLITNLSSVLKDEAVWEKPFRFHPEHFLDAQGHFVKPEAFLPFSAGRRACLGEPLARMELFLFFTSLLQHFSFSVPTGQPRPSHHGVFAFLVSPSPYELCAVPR
# Protocol: (§3) CYP (Cytochrome P450) enzymes are the major drug metabolizing enzymes present in the liver. The inhibition of CYP enzyme activity (IC50) for each of CYP1A2, CYP2C19, CYP2C9, CYP2D6, CYP3A4(BFC) and CYP3A4(BQ) is determined for compounds, where inhibition of metabolism of a known substrate leads to a decrease in the fluorescence of the metabolized product. The fluorescence of the product is monitored as a function of compound concentration. Compounds are dissolved in dimethyl sulfoxide to a concentration of 100 mM. These are diluted 1 μL into 82 μL of acetonitrile. An 11 μL aliquot of this solution is then added to 204 μL of cofactor mix (1.3% NADPH Regeneration system Solution A, 1.04% NADPH Regeneration system Solution B from BD Biosciences, 5% acetonitrile and 0.05% dimethyl sulfoxide). These are then serially diluted 1:1 (160 μL to 160 μL co-factor mix) for a total of 10 points. A 10 μL aliquot of this final mixture is dispensed into 384 well assay plates and incubated for 10 minutes at 37° C. […] Assay plates are incubated at 37° C. (CYP1A2-15 min; CYP2C9-45 min; CYP2C19, 2D6 and 3A4-30 min) and read in a Tecan Safire 2 plate reader (CYP1A2, 2C19 and 3A4 409 ex/460 em; CYP2C9 and 2D6 409 ex/530 em). The signal versus compound concentration is used to determine the IC50. The enzymes and substrates for this assay are obtained from BD Biosciences.
# [3] = tested on: SW620 cells; assay: Cell growth inhibition (Cell Titer Glo), SW620; type: cell-based; settings: Homo sapiens, SW-620, 72 h; wild-type B-RAF cell line, 3 days
# Protocol: as §1
# SW620 cells growth medium: • Leibovitz's L-15 medium, 2 mM L-glutamine, 10% fetal bovine serum.
# as §2
# [4] = biological target: Src (Homo sapiens, UniProt P12931); assay: Biochemical inhibitory activity, other protein kinases: Src; settings: for Kinase having IC50 of >1 μM: listing of the kinase means IC50 >1 μM; for Kinase having IC50 of <1 μM: listing of the kinase means IC50 <1 μM
# Chain of Src (P12931 whole entry, species assumed): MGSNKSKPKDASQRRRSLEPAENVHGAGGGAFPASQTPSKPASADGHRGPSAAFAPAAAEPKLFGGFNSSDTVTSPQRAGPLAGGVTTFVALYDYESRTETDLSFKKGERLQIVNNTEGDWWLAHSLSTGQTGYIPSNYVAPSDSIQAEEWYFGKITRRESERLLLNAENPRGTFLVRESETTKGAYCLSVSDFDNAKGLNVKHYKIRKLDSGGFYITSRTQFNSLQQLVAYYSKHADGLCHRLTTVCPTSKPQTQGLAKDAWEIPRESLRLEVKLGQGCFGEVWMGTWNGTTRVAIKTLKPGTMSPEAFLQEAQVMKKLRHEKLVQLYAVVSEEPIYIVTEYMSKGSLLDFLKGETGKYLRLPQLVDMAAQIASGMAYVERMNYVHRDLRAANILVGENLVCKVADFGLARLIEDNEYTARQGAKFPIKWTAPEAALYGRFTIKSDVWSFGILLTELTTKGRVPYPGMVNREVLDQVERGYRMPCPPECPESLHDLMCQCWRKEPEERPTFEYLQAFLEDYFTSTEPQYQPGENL
# [5] = biological target: T2, CYP2C19 (Homo sapiens, UniProt P33261); assay: CYP inhibition (fluorescent substrate), CYP2C19; type: in vitro ADME; settings: substrate CEC; read-out: Cyp IC50 (μM) 2C19
# T2 construct: purchased BD Biosciences
# T2 sequence (P33261 whole entry): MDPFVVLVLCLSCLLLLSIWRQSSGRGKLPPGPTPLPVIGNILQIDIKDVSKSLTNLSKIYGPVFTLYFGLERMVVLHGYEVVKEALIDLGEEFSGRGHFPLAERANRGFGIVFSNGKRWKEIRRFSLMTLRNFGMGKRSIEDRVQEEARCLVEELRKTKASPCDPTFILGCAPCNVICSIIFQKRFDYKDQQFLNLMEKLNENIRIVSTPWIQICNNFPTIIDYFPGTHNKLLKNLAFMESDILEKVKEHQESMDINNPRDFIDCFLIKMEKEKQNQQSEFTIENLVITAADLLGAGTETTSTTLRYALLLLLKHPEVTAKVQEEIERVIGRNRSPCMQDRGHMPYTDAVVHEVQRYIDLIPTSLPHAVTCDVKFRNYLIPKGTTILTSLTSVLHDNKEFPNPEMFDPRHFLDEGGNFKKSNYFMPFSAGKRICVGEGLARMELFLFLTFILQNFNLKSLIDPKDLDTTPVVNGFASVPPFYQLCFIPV
# Protocol: as §3
# [6] = biological target: Btk (Homo sapiens, UniProt Q06187); assay: Biochemical inhibitory activity, other protein kinases: Btk; settings: listing of the kinase means IC50 >1 μM
# Chain of Btk (Q06187 whole entry, species assumed): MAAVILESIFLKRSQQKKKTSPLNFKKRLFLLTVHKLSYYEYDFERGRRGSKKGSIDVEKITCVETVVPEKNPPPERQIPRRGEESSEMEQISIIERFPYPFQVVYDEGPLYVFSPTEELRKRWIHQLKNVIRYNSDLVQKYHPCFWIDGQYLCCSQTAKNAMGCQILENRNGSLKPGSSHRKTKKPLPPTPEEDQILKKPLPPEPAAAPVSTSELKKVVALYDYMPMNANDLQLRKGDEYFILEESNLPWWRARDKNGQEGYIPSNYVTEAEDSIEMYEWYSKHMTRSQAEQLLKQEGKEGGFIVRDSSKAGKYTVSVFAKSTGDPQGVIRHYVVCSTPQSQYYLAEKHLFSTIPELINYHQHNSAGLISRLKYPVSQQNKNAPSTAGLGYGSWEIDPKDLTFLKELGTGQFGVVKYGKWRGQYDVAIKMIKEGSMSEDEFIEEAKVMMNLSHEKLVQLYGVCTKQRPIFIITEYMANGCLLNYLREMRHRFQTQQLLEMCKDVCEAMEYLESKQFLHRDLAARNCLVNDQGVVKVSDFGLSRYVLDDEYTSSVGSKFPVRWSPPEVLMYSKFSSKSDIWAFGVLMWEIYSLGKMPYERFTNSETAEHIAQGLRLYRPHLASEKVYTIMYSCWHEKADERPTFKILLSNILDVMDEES
# [7] = biological target: T3, CYP1A2 (Homo sapiens, UniProt P05177); assay: CYP inhibition (fluorescent substrate), CYP1A2; type: in vitro ADME; settings: substrate CEC; read-out: Cyp IC50 (μM) 1A2
# T3 construct: purchased BD Biosciences
# T3 sequence (P05177 1-516): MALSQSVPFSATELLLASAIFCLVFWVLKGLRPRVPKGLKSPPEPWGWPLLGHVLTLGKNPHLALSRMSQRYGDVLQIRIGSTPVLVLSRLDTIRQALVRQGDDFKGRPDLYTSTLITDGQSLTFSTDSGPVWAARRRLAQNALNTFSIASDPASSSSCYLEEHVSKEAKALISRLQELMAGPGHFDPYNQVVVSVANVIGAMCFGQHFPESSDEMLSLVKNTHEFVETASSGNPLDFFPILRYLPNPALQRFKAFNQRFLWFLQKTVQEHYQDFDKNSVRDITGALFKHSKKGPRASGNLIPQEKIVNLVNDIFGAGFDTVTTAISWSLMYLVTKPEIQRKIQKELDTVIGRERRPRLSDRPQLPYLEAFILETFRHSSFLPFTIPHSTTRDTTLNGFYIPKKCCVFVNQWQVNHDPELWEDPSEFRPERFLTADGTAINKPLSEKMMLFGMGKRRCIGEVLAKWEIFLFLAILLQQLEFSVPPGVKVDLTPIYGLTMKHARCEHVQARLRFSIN
# Protocol: as §3
# [8] = biological target: T4, CYP3A4(BFC) (Homo sapiens, UniProt P08684); assay: CYP inhibition (fluorescent substrate), CYP3A4(BFC); type: in vitro ADME; settings: read-out: Cyp IC50 (μM) 3A4(BFC)
# T4 construct: purchased BD Biosciences
# T4 sequence (P08684 whole entry): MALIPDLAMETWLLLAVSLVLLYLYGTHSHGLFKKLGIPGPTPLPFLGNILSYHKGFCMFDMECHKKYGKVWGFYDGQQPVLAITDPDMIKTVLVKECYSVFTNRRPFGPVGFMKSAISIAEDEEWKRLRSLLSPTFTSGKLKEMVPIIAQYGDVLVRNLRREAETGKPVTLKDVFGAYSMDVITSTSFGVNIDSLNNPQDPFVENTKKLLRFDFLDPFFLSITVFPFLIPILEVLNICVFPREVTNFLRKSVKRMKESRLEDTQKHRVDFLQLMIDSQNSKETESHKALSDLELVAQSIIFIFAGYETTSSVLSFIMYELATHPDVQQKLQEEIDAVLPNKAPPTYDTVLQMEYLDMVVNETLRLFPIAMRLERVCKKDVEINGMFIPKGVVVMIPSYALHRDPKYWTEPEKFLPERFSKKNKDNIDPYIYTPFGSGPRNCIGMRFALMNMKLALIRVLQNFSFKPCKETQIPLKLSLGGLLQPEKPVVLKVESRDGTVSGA
# Protocol: as §3
IC50 [1],IC50 [2],IC50 [3],Kinase having IC50 of >1 μM [4],IC50 [5],Kinase having IC50 of >1 μM [6],IC50 [7],IC50 [8],Kinase having IC50 of <1 μM [4],Compound
–,> 10 µM,–,Src,> 10 µM,Btk,> 10 µM,> 10 µM,–,"N#Cc1cnc2[nH]cc(C(=O)c3c(F)ccc(NS(=O)(=O)N4CCCC4)c3F)c2c1 [Compound P-0006, pyrrolidine-1-sulfonic acid [3-(5-cyano-1H-pyrrolo[2,3-b]pyridine-3-carbonyl)-2,4-difluoro-phenyl]-amide]"
> 20 µM,> 10 µM,> 20 µM,–,> 10 µM,Btk,> 10 µM,5 to 10 µM,Src,"N#Cc1cnc2[nH]cc(C(=O)c3c(F)ccc(NS(=O)(=O)c4cc(F)ccc4F)c3F)c2c1 [Compound P-0004, N-[3-(5-cyano-1H-pyrrolo[2,3-b]pyridine-3-carbonyl)-2,4-difluoro-phenyl]-2,5-difluoro-benzenesulfonamide]"
> 20 µM,> 10 µM,> 20 µM,Src,> 10 µM,Btk,> 10 µM,5 to 10 µM,–,"CN(C)S(=O)(=O)Nc1ccc(F)c(C(=O)c2c[nH]c3ncc(C#N)cc23)c1F [Compound P-0007, N,N-dimethylamino-sulfonic acid [3-(5-cyano-1H-pyrrolo[2,3-b]pyridine-3-carbonyl)-2,4-difluoro-phenyl]-amide]"
> 20 µM,> 10 µM,> 20 µM,–,> 10 µM,Btk,> 10 µM,> 10 µM,Src,"N#Cc1cnc2[nH]cc(C(=O)c3c(F)ccc(NS(=O)(=O)c4cccc(F)c4)c3F)c2c1 [Compound P-0005, N-[3-(5-cyano-1H-pyrrolo[2,3-b]pyridine-3-carbonyl)-2,4-difluoro-phenyl]-3-fluoro-benzenesulfonamide]"

# Further lines, the compound ahead of its results:
Compound,IC50 [1],IC50 [2],IC50 [3],Kinase having IC50 of >1 μM [4],IC50 [5],Kinase having IC50 of >1 μM [6],IC50 [7],IC50 [8],Kinase having IC50 of <1 μM [4]
"CCCS(=O)(=O)Nc1cccc(C(=O)c2c[nH]c3ncc(C#N)cc23)c1F [Compound P-0003, propane-1-sulfonic acid [3-(5-cyano-1H-pyrrolo[2,3-b]pyridine-3-carbonyl)-2-fluoro-phenyl]-amide]",> 20 µM,> 10 µM,> 20 µM,Src,> 10 µM,Btk,> 10 µM,> 10 µM,–
"CCCS(=O)(=O)Nc1ccc(F)c(C(=O)c2c[nH]c3ncc(C#N)cc23)c1F [Compound P-0002, propane-1-sulfonic acid [3-(5-cyano-1H-pyrrolo[2,3-b]pyridine-3-carbonyl)-2,4-difluoro-phenyl]-amide]",> 20 µM,> 10 µM,> 20 µM,Src,5 to 10 µM,Btk,> 10 µM,> 10 µM,–
"CCCS(=O)(=O)Nc1ccc(F)c(C(=O)c2c[nH]c3ncc(-c4cnc(OC)nc4)cc23)c1F [Compound P-0001, propane-1-sulfonic acid {2,4-difluoro-3-[5-(2-methoxy-pyrimidin-5-yl)-1H-pyrrolo[2,3-b]pyridine-3-carbonyl]-phenyl}-amide]",> 5 µM,> 10 µM,> 20 µM,Src,> 10 µM,Btk,> 10 µM,> 10 µM,–
